Data: PubChem BioAssay AID328 (DTP/NCI, 2004)
Several values for one entry are separate records, joined by “and”; a condition that tells them apart may be missing. Equal entries are not always repeated. Toxic doses and inconclusive results are not listed. How the source made its calls: active means survival T/C of 150% or more; inactive means T/C below 125% in these data.

System: BDF1 mice, P388 leukemia ip, median survival T/C
Experiment: NCI In Vivo Anticancer Drug Screen. Data for tumor model P388 Leukemia (intraperitoneal) in B6D2F1 (BDF1) mice
Details: endpoint: median survival time, higher = longer survival
Summary of the method: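 Antitumour effect was judged in vivo: survival in drug-treated mice, normalised to that of vehicle-dosed controls, gives the reported T/C.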

[1] = dose: 100.0 mg/kg/injection, schedule: Q01DX001 (ip), vehicle: Klucel (hydroxypropylcellulose) (HPC)
[2] = dose: 200.0 mg/kg/injection, schedule: Q01DX001 (ip), vehicle: Klucel (hydroxypropylcellulose) (HPC)
[3] = dose: 400.0 mg/kg/injection, schedule: Q01DX001 (ip), vehicle: Klucel (hydroxypropylcellulose) (HPC)
[4] = dose: 25.0 mg/kg/injection, schedule: Q01DX001 (ip), vehicle: saline with Tween-80
[5] = dose: 50.0 mg/kg/injection, schedule: Q01DX001 (ip), vehicle: saline with Tween-80
[6] = dose: 100.0 mg/kg/injection, schedule: Q04DX003 (ip), vehicle: saline
[7] = dose: 200.0 mg/kg/injection, schedule: Q04DX003 (ip), vehicle: saline
[8] = dose: 400.0 mg/kg/injection, schedule: Q04DX003 (ip), vehicle: saline
[9] = dose: 100.0 mg/kg/injection, schedule: Q01DX009 (ip), vehicle: saline
[10] = dose: 12.5 mg/kg/injection, schedule: Q01DX009 (ip), vehicle: saline with Tween-80
[11] = dose: 25.0 mg/kg/injection, schedule: Q01DX009 (ip), vehicle: saline with Tween-80
[12] = dose: 50.0 mg/kg/injection, schedule: Q01DX009 (ip), vehicle: saline with Tween-80
[13] = dose: 100.0 mg/kg/injection, schedule: Q04DX003 (ip), vehicle: Klucel (hydroxypropylcellulose) (HPC)
[14] = dose: 200.0 mg/kg/injection, schedule: Q04DX003 (ip), vehicle: Klucel (hydroxypropylcellulose) (HPC)
[15] = dose: 400.0 mg/kg/injection, schedule: Q04DX003 (ip), vehicle: Klucel (hydroxypropylcellulose) (HPC)
[16] = dose: 25.0 mg/kg/injection, schedule: Q04DX003 (ip), vehicle: saline with Tween-80
[17] = dose: 50.0 mg/kg/injection, schedule: Q04DX003 (ip), vehicle: saline with Tween-80
[18] = dose: 100.0 mg/kg/injection, schedule: Q04DX003 (ip), vehicle: saline with Tween-80
[19] = dose: 100.0 mg/kg/injection, schedule: Q01DX009 (ip), vehicle: saline with Tween-80

Measured: T/C

C/C=C1\CN(C(=O)C(NC(=O)C(N)C(O)C(O)COC(N)=O)C2OC(n3cc(C(=O)O)c(=O)[nH]c3=O)C(O)C2O)C1C(=O)O (centres undefined) (tested in a mixture with another compound)
inactive: dose: 100.0 mg/kg/injection, schedule: Q01DX008 (ip), vehicle: saline 90 % of control | dose: 200.0 mg/kg/injection, schedule: Q01DX008 (ip), vehicle: saline 100 % of control

COc1cccc(OC)c1C1(O)c2c(OC)cccc2Oc2cccc(OC)c21
inactive: [1] 95 % of control | [2] 100 % of control | [3] 104 % of control

CCN(CC)CCCC(C)NC(=O)c1ccc(N(C)C)nc1 (centres undefined)
inactive: dose: 50.0 mg/kg/injection, schedule: Q01DX009 (ip), vehicle: water 93 % of control

CCOP(=O)(C/C(=N\Nc1ccc([N+](=O)[O-])cc1[N+](=O)[O-])c1ccccc1)c1ccccc1 (centres undefined)
inactive: [4] 100 % of control | [5] 104 % of control | dose: 100.0 mg/kg/injection, schedule: Q01DX001 (ip), vehicle: saline with Tween-80 95 % of control

Cc1ccc2ccccc2c1NCCC(=O)O
inactive: [1] 103 % of control | [2] 96 % of control | [3] 100 % of control

COC(=O)[C@@]12OC[C@]34[C@H]([C@@H](O)[C@@H]1O)[C@@]1(C)[C@H](O)C(=O)C=C(C)[C@@H]1C[C@H]3OC(=O)C(OC(C)=O)[C@@H]24 (some centres undefined)
inactive: dose: 15.0 micrograms/kg/injection, schedule: Q01DX009 (ip), vehicle: saline + alcohol 100 % of control | dose: 16.0 micrograms/kg/injection, schedule: Q01DX009 (ip), vehicle: saline + alcohol 100 % of control | dose: 31.0 micrograms/kg/injection, schedule: Q01DX009 (ip), vehicle: saline + alcohol 90 % of control and 100 % of control | dose: 62.0 micrograms/kg/injection, schedule: Q01DX009 (ip), vehicle: saline + alcohol 90 % of control and 104 % of control | dose: 125.0 micrograms/kg/injection, schedule: Q01DX009 (ip), vehicle: saline + alcohol 115 % of control | dose: 250.0 micrograms/kg/injection, schedule: Q01DX009 (ip), vehicle: saline + alcohol 110 % of control | dose: 500.0 micrograms/kg/injection, schedule: Q01DX009 (ip), vehicle: saline + alcohol 120 % of control

O=S(=O)(O)CCN1CCN(CCO)CC1
inactive: [6] 91 % of control | [7] 108 % of control | [8] 95 % of control

O=C(CCNOCc1ccccc1)OCc1ccccc1
inactive: dose: 12.5 mg/kg/injection, schedule: Q01DX009 (ip), vehicle: other 101 % of control | dose: 25.0 mg/kg/injection, schedule: Q01DX009 (ip), vehicle: other 100 % of control | dose: 50.0 mg/kg/injection, schedule: Q01DX009 (ip), vehicle: other 101 % of control | dose: 200.0 mg/kg/injection, schedule: Q01DX009 (ip), vehicle: other 89 % of control

c1ccc(CCN2CCC3(CC2)COCc2ccccc23)cc1
inactive: [4] 104 % of control | [5] 90 % of control

Cc1cnn(O)c(=NCCCl)n1
inactive: dose: 100.0 mg/kg/injection, schedule: Q04DX002 (ip), vehicle: saline with Tween-80 99 % of control | dose: 200.0 mg/kg/injection, schedule: Q04DX002 (ip), vehicle: saline with Tween-80 99 % of control | dose: 400.0 mg/kg/injection, schedule: Q04DX002 (ip), vehicle: saline with Tween-80 99 % of control

COP1(=O)OCC2OC(n3cnc4c(N)ncnc43)C(O)C2O1 (centres undefined)
inactive: [9] 88 % of control

c1cc2c(c(NC3=NCCCO3)c1)CCCC2
inactive: [10] 100 % of control | [11] 110 % of control | [12] 105 % of control

O=C1CCC(N2C(=O)c3ccccc3C2=O)C(=O)N1 (centres undefined)
inactive: dose: 100.0 mg/kg/injection, schedule: Q01DX010 (ip), vehicle: saline 96 % of control | dose: 200.0 mg/kg/injection, schedule: Q01DX010 (ip), vehicle: saline 96 % of control | dose: 400.0 mg/kg/injection, schedule: Q01DX010 (ip), vehicle: saline 92 % of control | dose: 800.0 mg/kg/injection, schedule: Q01DX010 (ip), vehicle: saline 92 % of control

c1cc2c(cc1C1SCSCS1)OCO2
inactive: [13] 90 % of control | [14] 100 % of control | [15] 100 % of control

COC(=O)c1ccc(Cl)c(Cl)c1
inactive: [11] 101 % of control | [16] 102 % of control | [12] 116 % of control | [17] 94 % of control and 100 % of control and 108 % of control | [18] 97 % of control and 98 % of control and 103 % of control | dose: 150.0 mg/kg/injection, schedule: Q04DX003 (ip), vehicle: saline with Tween-80 98 % of control | dose: 200.0 mg/kg/injection, schedule: Q04DX003 (ip), vehicle: saline with Tween-80 108 % of control and 112 % of control | dose: 300.0 mg/kg/injection, schedule: Q04DX003 (ip), vehicle: saline with Tween-80 110 % of control | dose: 400.0 mg/kg/injection, schedule: Q04DX003 (ip), vehicle: saline with Tween-80 107 % of control

CN1CCN(C(=O)c2ccc(Cl)c(Cl)c2)CC1
inactive: dose: 3.12 mg/kg/injection, schedule: Q01DX009 (ip), vehicle: saline with Tween-80 103 % of control | dose: 6.25 mg/kg/injection, schedule: Q01DX009 (ip), vehicle: saline with Tween-80 99 % of control | [10] 103 % of control | dose: 12.5 mg/kg/injection, schedule: Q04DX003 (ip), vehicle: saline with Tween-80 108 % of control | [11] 88 % of control | [16] 97 % of control | [12] 99 % of control | [17] 91 % of control | [19] 105 % of control | [18] 97 % of control

C=C(CNC(C)(C)C)C(=O)c1ccccc1
inactive: dose: 3.13 mg/kg/injection, schedule: Q01DX009 (ip), vehicle: saline 116 % of control | dose: 6.25 mg/kg/injection, schedule: Q01DX009 (ip), vehicle: saline 116 % of control

CCOc1ccc(/C=N/NS(=O)(=O)c2ccc(C)cc2)cc1
inactive: [13] 100 % of control | dose: 200.0 mg/kg/injection, schedule: Q01DX009 (ip), vehicle: Klucel (hydroxypropylcellulose) (HPC) 92 % of control | [14] 100 % of control | [15] 100 % of control

CCCCC(C(=O)OCC)C(CCC1CCCCC1)(C(=O)OCC)C(=O)OCC (centres undefined)
inactive: [13] 91 % of control | [14] 87 % of control | [15] 100 % of control

N=c1scc(CC(=O)O)n1N
inactive: dose: 50.0 mg/kg/injection, schedule: Q01DX009 (ip), vehicle: saline 92 % of control | [9] 108 % of control | dose: 200.0 mg/kg/injection, schedule: Q01DX009 (ip), vehicle: saline 92 % of control

O=C1CCN2C=CC=CC2=N1
inactive: [6] 104 % of control | [7] 100 % of control | [8] 95 % of control

CC(=O)N(C)C=C1C(=O)N(C)C(=O)N(C)C1=O
inactive: [12] 102 % of control | [19] 111 % of control | dose: 200.0 mg/kg/injection, schedule: Q01DX009 (ip), vehicle: saline with Tween-80 92 % of control
